Tests used:
[1] = biological target: T1, prostatic acid phosphatase (PAP) (Homo sapiens, UniProt P15309); assay: PAP secretion in VCaP cell culture with conjugates, ELISA; type: cell-based; details: overnight; for inhibition of PAP secretion: 0.1 mM or 1.0 mM in VCaP cell culture medium
T1 construct: endogenous in cells; host or cells: VCaP (human prostate cancer cell line); in A3 also MC3T3 pre-osteoblasts, alone or in co-culture
T1 sequence (P15309 33-386): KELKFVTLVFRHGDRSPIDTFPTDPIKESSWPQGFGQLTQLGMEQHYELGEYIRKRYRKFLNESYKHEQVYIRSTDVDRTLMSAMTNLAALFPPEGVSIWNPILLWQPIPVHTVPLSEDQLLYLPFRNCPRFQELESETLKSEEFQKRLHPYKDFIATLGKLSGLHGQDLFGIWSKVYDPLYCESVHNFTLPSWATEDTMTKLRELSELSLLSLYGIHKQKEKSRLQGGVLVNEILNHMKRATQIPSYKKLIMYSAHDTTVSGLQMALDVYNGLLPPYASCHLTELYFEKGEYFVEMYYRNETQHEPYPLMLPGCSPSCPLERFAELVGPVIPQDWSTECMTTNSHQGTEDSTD
Protocol: Either the glyceric acid conjugate (i.e., N-Alendronyl-D-Glyceramide) (example 1, 0.1 mM or 1.0 mM) or the tartaric acid conjugate (i.e., N-Alendronyl-L-Tartaric Acid Monamide) (example 2, 0.1 mM or 1.0 mM) was added to VCaP cell culture medium, and incubated overnight. PAP secretion was measured using an ELISA assay.

[2] = test system: MC3T3 cells; assay: Growth of MC3T3 pre-osteoblast cells, single line or co-culture, counted by hemacytometer; type: cell-based; details: tartrate 20 μM, 7 days, serum free medium
Protocol: (§1) The human prostate cancer cell line VCaP (originally derived from a vertebral metastases) and the pre-osteoblast cell line MC3T3, were used to for in vitro studies with tartrate. Each cell culture was grown in serum free medium either in single line or co-culture, and treated with or without tartrate (20 μM) for 7 days. Cell numbers were counted by a hemacytometer and the secretion of PAP and bone alkaline phosphatase (ALP) was measured using ELISA.

[3] = biological target: T2, bone acid phosphatase (Homo sapiens, UniProt P13686); details: cited from earlier work
T2 sequence (P13686 22-325): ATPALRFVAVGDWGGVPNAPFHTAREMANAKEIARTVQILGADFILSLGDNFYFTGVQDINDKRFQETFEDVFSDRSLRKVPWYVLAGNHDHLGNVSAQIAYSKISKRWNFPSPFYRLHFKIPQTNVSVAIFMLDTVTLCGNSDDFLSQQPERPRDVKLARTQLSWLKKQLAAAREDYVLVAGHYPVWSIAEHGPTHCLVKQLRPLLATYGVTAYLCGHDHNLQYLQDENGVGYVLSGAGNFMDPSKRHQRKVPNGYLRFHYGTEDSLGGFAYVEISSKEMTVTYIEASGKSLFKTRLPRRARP

[4] = test system: RAW (osteoclast) cells; assay: Osteoclast bone-resorbing activity, pit formation on osteologic discs; type: cell-based; details: tartrate 20 μM, 7 days, RANKL and MCSF
Protocol: The effect of PAP on osteoclast bone-resorbing activity was measured by assaying pit formation when osteoclasts were cultured on bone matrix (osteologic discs). RAW (osteoclast) cells (2×10^4 cells), PC3 (PAP^−) cells (2×10^4 cells), and VCaP (PAP^+) cells (3×10^4 cells) were plated, alone or in combination, on calcium hydroxyapatite-coated osteologic discs in DMEM medium with 10% FBS for 7 days+/−tartrate (20 μM). All cultures were treated with RANKL ([…]) and MCSF ([…]). On day 7, cells were washed and discs stained with von Kossa to visualize the calcium matrix and pits (which indicate bone resorption by the RAW osteoclast cells).

[5] = test system: bone alkaline phosphatase (ALP); assay: Secretion of bone alkaline phosphatase (ALP), ELISA; type: cell-based; details: tartrate 20 μM, 7 days
Protocol: as §1
Secretion of bone alkaline phosphatase (ALP) by pre-osteoblast cells is correlated with pre-osteoblast differentiation into mature osteoblasts cells. Accordingly, ALP secretion was measured to indirectly determine whether the inhibition of PAP secretion by tartrate also served to attenuate differentiation events. […] This effect was not seen in the single line MC3T3 and VCaP cell cultures.

[6] = test system: VCaP cells; assay: Growth of VCaP prostate cancer cells, single line or co-culture, counted by hemacytometer; type: cell-based, human; details: tartrate 20 μM, 7 days, serum free medium
Protocol: as §1

[7] = biological target: T3, PAP (Homo sapiens, UniProt P15309); details: see U.S. Pat. No. 5,763,490; cited from earlier work
T3 sequence (P15309 33-386): T1 sequence (P15309 33-386)

[8] = test system: prostatic acid phosphatase (PAP); assay: Secretion of PAP from MC3T3 and VCaP single line and co-cultures, ELISA; type: cell-based, human; details: tartrate 20 μM, 7 days, MC3T3 cells (very low PAP levels)
Protocol: as §1

[9] = biological target: T1, prostatic acid phosphatase (PAP); assay: as above; type: cell-based; details: tartrate 20 μM, 7 days
Protocol: as §1

[10] = test system: RAW cells; assay: RAW pre-osteoclast cell growth in co-culture experiments, hemacytometer; type: cell-based; details: tartrate (2004) for 2 days
Protocol: (§2) In order to determine the effects of prostatic acid phosphatase (PAP) on osteoclast differentiation and activity, a series of co-culture experiments were performed in which pre-osteoclast cells (RAW cells) were co-cultured with either PAP-positive (PAP^+), VCaP cells or PAP-negative (PAP^−) (PC3) human prostate cancer (PCa) cells. RAW cells were counted in a hemacytometer on day 5.
(§3) VCaP (PAP^+) and PC3 (PAP^−) cells (5×10^4 each) were seeded on inserts in RPMI or DMEM medium with 10% FBS. Pre-osteoclast, PRAW cells (5×10^4) were plated on the bottom in 12 well plates. After 2 days, medium was changed to serum-free DMEM with 0.1% BSA+/− tartrate (2004) for 2 days. Mean number of multinucleated cells (hallmark of osteoclast differentiation) was determined on day 5 by multiple field counts in 200× objective view.

[11] = test system: RAW cells; assay: RAW cell differentiation, mean number of multinucleated cells; type: cell-based; details: tartrate (2004) for 2 days
Protocol: as §2, §3

SMILES: O=C(NCCCC(O)(P(=O)(O)O)P(=O)(O)O)[C@H](O)CO [example 1, N-Alendronyl-D-Glyceramide]
- inhibition of PAP secretion [1]: significantly inhibited
- effectiveness as a PAP inhibitor compared with tartrate alone ([1]; VCaP cell culture medium): as effective as tartrate alone

SMILES: O=C(O)C(O)[C@H](O)C(=O)NCCCC(O)(P(=O)(O)O)P(=O)(O)O (stereo partly drawn) [example 2, N-Alendronyl-L-Tartaric Acid Monamide]
- inhibition of PAP secretion [1]: inhibit PAP secretion

SMILES: O=C(O)[C@H](O)[C@@H](O)C(=O)O [tartrate, L-tartrate]
- effect on growth of MC3T3 cells co-cultured with VCaP cells ([2]; co-culture with VCaP, p<0.01): significantly inhibited
- effect on growth of MC3T3 single line cell culture ([2]; single line): did not have a significant effect
- inhibition of bone acid phosphatase [3]: is not
- decrease of pit formation, RAW cells co-cultured with VCaP [4]: 50%
- effect on number of pits, RAW cells co-cultured with PC3 cells [4]: no significant effect
- bone alkaline phosphatase secretion by MC3T3 cells in co-culture with VCaP cells ([5]; co-culture with VCaP): significantly inhibited
- bone alkaline phosphatase secretion, single line MC3T3 cell culture ([5]; single line MC3T3): not seen
- bone alkaline phosphatase secretion, single line VCaP cell culture ([5]; single line VCaP): not seen
- effect on VCaP cell growth when co-cultured with MC3T3 cells ([6]; co-culture with MC3T3): did not have a significant effect
- effect on growth of VCaP single line cell culture ([6]; single line): did not have a significant effect
- inhibition of PAP [7]: inhibited
- PAP secretion by MC3T3 cells [8]: did not inhibit
- prostatic acid phosphatase secretion by VCaP cells grown alone ([9]; VCaP alone): significantly inhibited
- prostatic acid phosphatase secretion by VCaP cells in co-culture with MC3T3 cells ([9]; co-culture with MC3T3): significantly inhibited
- effect on growth of RAW cells co-cultured with PC3 cells ([10]; counted day 5, co-culture with PC3 (PAP-)): did not have a significant effect
- effect on growth of RAW cells co-cultured with VCaP cells ([10]; counted day 5, co-culture with VCaP (PAP+), p<0.01): significantly inhibited
- effect on growth of RAW cells alone ([10]; serum-free DMEM with 0.1% BSA, counted day 5, RAW alone): did not have a significant effect
- effect on differentiation of RAW cells alone ([11]; multinucleated cells on day 5, RAW alone): did not have a significant effect
- effect on differentiation of RAW cells co-cultured with PC3 cells ([11]; multinucleated cells on day 5, co-culture with PC3): did not have a significant effect
- effect on RAW cell differentiation when co-cultured with VCaP ([11]; multinucleated cells on day 5, co-culture with VCaP, p<0.01): significantly inhibited

— patent US20110065672A1, “BISPHOSPHONATE-PROSTATIC ACID PHOSPHATASE INHIBITOR CONJUGATES TO TREAT PROSTATE CANCER BONE METASTASIS” (MOUNT SINAI SCHOOL OF MEDICINE OF NEW YORK UNIVERSITY, priority 2009, published 2011)
